Patent US8258311B2, “Human protein tyrosine phosphatase inhibitors and methods of use” (Aerpio Therapeutics Inc., priority 2006, dated 2012)

Experiments:
hindlimb ischemia = experiment: Rat hindlimb model of collateral development: blood flow during treadmill exercise (microspheres); type: in vivo; settings: for Blood Flow During exercise Calf (GPS): mean ± SE
Text: The Rat hindlimb model is used to evaluate angiogenic properties of novel HPTPb inhibitors. Specifically to determine if there is enhanced blood flow to the collateral dependent region of the leg post ischemia when the animal is in an exercise challenged state. […] An initial surgery is done to create hindlimb ischemia and implant osmotic pumps essentially as previously described with minor alterations. […] Following induction, animals are transferred to a surgical mat and anesthesia is continued via a non-rebreathing circuit. A warming lamp is positioned above the rat and a rectal probe is placed to monitor the animal's body temperature. The groin areas bilaterally are clipped and prepared with alternating Betadine and alcohol scrubs (3×) and a sterile drape is placed over the rat. The left femoral artery is exposed through a skin incision and subsequently ligated in two positions 1 cm apart; distal to the inguinal ligament and proximal to the femoral circumflex artery. The skin is closed using either skin staples or Vetbond. The same procedure is repeated on the right side. […] Prior to implantation, osmotic pumps are filled with VEGF165 solution at a dose of 15 μg/kg/day, and primed overnight inside sterile saline beakers in a water bath (37° C.). Stretched PESO catheters coated with PPG (Poly propylene glycol Aldrich # 20-235-5) are attached using sterile technique and in accordance with manufacture's instructions the afternoon prior to surgery. For pump placement, an incision is made to expose the right jugular vein, an area is tunneled SubQ from the right side of the neck to the back and the pump is placed in the resulting SubQ pocket. The vessel is ligated with 4-0 silk, a cut is made in the vessel just distal to the tie and the catheter from the osmotic pump is threaded down stream (approx 2 cm) and secured with a second tie. The skin is closed in the same manner as above. Two weeks after the ligation surgery the rat underwent a second acute surgery to place indwelling catheters for microsphere measurements. Rats are anesthetized as described above. The animal is clipped, prepped, and EMLA cream is applied to each entry site. First an incision is made longitudinally at the ventral base of the tail using a 10 blade. A tapered PE 50 catheter is inserted approximately 3 cm into the ventral tail artery and anchored into place. The end of the catheter is then wrapped around the tail and tunneled SubQ over the back, exiting between the shoulder blades. Following tail artery cannulation, a midline neck incision is made to expose the left carotid artery for occlusive cannulation. A tapered PE 50 catheter is placed 3 cm into the carotid and the distal end is tunneled SubQ, exiting between the shoulder blades. The neck is closed with either skin stables or Vetbond and EMLA cream is applied. The exit site is closed around the catheters with a purse string suture stitch. The ends of the catheters are cauterized shut and the rat is allowed to recover from anesthesia for at least 4 hours. For blood flow measurements, rats are placed onto the treadmill and the catheters are connected to extension tubing via 22 gage male-male connectors. For microsphere withdrawals and blood pressure measurements, the tail artery catheter is connected to a syringe (coated with tween and heparin-), which is “T” Ed to a withdrawal pump and a pressure transducer. The carotid catheter is used for injecting the microspheres. The rat began running at speed 20 m/min and an elevation of 7°. […] The pump is set to stop at 90 seconds. The […] stopped, the extension lines are replaced and the animal's lines are flushed, and the animal allowed to rest. The syringe and lines are removed from the pump and the reference blood sample is place in a labeled tube for processing. […] At the completion of the second run, the animal is euthanized with 0.3 ml of Buthaneasia. Following euthanasia, tissues are removed, trimmed, weighed, recorded, and placed in marked tubes for processing. […]

[1] = Rat hindlimb model: blood pressure and heart rate; type: in vivo; settings: for Blood Pressure Post-Exercise / Heart Rate Exercise / Heart Rate Post-Exercise / Heart Rate Pre-Exercise / Blood Pressure Exercise / Blood Pressure Pre-Exercise: mean ± SE; for Blood Pressure Pre-Exercise: two weeks after ligation
Text: An initial surgery is done to create hindlimb ischemia and implant osmotic pumps essentially as previously described with minor alterations. […] Following induction, animals are transferred to a surgical mat and anesthesia is continued via a non-rebreathing circuit. A warming lamp is positioned above the rat and a rectal probe is placed to monitor the animal's body temperature. The groin areas bilaterally are clipped and prepared with alternating Betadine and alcohol scrubs (3×) and a sterile drape is placed over the rat. The left femoral artery is exposed through a skin incision and subsequently ligated in two positions 1 cm apart; distal to the inguinal ligament and proximal to the femoral circumflex artery. The skin is closed using either skin staples or Vetbond. The same procedure is repeated on the right side. […] Stretched PESO catheters coated with PPG (Poly propylene glycol Aldrich # 20-235-5) are attached using sterile technique and in accordance with manufacture's instructions the afternoon prior to surgery. For pump placement, an incision is made to expose the right jugular vein, an area is tunneled SubQ from the right side of the neck to the back and the pump is placed in the resulting SubQ pocket. The vessel is ligated with 4-0 silk, a cut is made in the vessel just distal to the tie and the catheter from the osmotic pump is threaded down stream (approx 2 cm) and secured with a second tie. The skin is closed in the same manner as above.
Two weeks after the ligation surgery the rat underwent a second acute surgery to place indwelling catheters for microsphere measurements. Rats are anesthetized as described above. The animal is clipped, prepped, and EMLA cream is applied to each entry site. First an incision is made longitudinally at the ventral base of the tail using a 10 blade. A tapered PE 50 catheter is inserted approximately 3 cm into the ventral tail artery and anchored into place. The end of the catheter is then wrapped around the tail and tunneled SubQ over the back, exiting between the shoulder blades. Following tail artery cannulation, a midline neck incision is made to expose the left carotid artery for occlusive cannulation. A tapered PE 50 catheter is placed 3 cm into the carotid and the distal end is tunneled SubQ, exiting between the shoulder blades. The neck is closed with either skin stables or Vetbond and EMLA cream is applied. The exit site is closed around the catheters with a purse string suture stitch. The ends of the catheters are cauterized shut and the rat is allowed to recover from anesthesia for at least 4 hours.
For blood flow measurements, rats are placed onto the treadmill and the catheters are connected to extension tubing via 22 gage male-male connectors. For microsphere withdrawals and blood pressure measurements, the tail artery catheter is connected to a syringe (coated with tween and heparin-), which is “T” Ed to a withdrawal pump and a pressure transducer. The carotid catheter is used for injecting the microspheres. The rat began running at speed 20 m/min and an elevation of 7°. One minute into the run the pump is turned on at a rate of 0.5 ml/min, ten seconds later 0.5 ml (1×10^6 spheres/mL) of florescent microspheres are infused into the carotid line followed by a 0.5 ml flush over 30 seconds. The pump is set to stop at 90 seconds. The tmill is stopped, the extension lines are replaced and the animal's lines are flushed, and the animal allowed to rest. The syringe and lines are removed from the pump and the reference blood sample is place in a labeled tube for processing. The withdrawal syringe and extension lines are flushed 3 times with 2% tween, waste is flushed the reference blood tube A new syringe and lines are place on the pump and the procedure is repeated with the animal running at a faster speed, (25 m/min) and a different microsphere color is injected. At the completion of the second run, the animal is euthanized with 0.3 ml of Buthaneasia.

[2] = Rat hindlimb model: body weight; type: in vivo; settings: mean ± SE, in g (unit assumed)
HPTPβ = HPTPβ (Homo sapiens, UniProt P23467); experiment: HPTPβ inhibition (IC50); type: biochemical
PTP1B = molecular target: T1, PTP1B (Homo sapiens, UniProt P18031); experiment: PTP1B inhibition (IC50); type: biochemical
T1 sequence (P18031 1-435): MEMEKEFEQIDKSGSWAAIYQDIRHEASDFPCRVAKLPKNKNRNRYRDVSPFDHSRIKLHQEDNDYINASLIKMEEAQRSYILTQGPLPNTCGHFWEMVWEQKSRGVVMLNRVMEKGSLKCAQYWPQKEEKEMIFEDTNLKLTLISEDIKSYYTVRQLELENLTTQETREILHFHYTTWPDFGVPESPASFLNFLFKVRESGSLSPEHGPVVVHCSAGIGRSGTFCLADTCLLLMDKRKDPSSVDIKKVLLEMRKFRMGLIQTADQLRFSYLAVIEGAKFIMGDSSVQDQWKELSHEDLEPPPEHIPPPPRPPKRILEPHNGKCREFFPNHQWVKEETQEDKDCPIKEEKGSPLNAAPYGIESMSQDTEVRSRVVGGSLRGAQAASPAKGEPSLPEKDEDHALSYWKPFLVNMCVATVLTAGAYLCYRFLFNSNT

[3] = continuous SubQ infusion High 15 mg/kg/d
[4] = continuous SubQ infusion Low 5 mg/kg/d
[5] = continuous SubQ infusion High 15 mg/kg/d, in mmHg (unit assumed)

Chain of HPTPβ (P23467 23-1997): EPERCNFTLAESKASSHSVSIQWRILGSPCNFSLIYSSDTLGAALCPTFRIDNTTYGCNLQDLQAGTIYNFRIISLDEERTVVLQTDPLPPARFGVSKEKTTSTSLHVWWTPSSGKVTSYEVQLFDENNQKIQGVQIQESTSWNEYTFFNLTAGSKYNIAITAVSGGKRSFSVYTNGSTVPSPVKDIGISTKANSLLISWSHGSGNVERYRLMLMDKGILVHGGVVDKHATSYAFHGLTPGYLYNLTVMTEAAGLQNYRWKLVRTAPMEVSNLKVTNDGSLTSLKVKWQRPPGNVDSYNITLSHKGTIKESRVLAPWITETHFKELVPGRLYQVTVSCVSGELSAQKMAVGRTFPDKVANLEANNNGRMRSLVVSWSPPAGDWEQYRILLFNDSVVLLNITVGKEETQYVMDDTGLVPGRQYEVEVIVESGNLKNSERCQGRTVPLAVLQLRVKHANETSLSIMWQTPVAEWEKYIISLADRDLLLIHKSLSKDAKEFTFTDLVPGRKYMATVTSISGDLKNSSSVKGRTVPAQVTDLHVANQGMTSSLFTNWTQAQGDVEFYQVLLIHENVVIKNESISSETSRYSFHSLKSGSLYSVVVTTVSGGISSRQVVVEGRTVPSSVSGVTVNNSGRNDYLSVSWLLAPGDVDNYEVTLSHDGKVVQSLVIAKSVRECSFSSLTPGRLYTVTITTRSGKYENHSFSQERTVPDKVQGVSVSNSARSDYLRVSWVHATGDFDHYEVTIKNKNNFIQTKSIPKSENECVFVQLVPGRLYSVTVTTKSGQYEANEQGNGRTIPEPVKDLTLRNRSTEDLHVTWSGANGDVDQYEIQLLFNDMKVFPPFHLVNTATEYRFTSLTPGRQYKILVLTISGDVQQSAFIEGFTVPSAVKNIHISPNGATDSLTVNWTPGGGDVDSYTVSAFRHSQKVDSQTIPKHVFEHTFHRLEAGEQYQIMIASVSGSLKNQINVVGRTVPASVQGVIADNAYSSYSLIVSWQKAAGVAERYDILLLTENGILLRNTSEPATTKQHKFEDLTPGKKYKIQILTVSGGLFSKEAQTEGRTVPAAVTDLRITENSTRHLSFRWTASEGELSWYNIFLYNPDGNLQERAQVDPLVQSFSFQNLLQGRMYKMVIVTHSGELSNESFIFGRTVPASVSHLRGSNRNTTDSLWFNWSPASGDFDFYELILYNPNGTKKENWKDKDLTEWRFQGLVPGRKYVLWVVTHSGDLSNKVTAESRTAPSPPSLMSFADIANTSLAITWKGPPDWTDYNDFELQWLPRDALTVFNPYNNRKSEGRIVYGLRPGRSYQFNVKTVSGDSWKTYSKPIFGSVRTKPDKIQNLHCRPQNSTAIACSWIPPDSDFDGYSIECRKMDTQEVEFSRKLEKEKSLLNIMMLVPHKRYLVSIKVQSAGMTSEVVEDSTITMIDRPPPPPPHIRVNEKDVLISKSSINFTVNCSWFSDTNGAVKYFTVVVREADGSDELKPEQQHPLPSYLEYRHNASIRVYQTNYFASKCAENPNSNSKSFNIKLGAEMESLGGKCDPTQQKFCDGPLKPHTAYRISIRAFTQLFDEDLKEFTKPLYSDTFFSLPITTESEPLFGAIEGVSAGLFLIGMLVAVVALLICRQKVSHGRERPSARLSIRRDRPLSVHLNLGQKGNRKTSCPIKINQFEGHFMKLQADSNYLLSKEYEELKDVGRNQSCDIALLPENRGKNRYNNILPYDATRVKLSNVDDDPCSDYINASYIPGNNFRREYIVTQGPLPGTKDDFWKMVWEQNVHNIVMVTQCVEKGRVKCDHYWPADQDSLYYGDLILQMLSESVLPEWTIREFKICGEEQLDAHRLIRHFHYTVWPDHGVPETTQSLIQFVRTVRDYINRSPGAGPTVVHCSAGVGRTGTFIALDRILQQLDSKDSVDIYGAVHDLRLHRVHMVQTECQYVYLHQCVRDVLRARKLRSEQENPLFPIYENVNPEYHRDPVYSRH

CCc1csc([C@H](Cc2ccc(NS(=O)(=O)O)cc2)NC(=O)[C@H](Cc2ccccc2)NC(=O)OC(C)(C)C)n1 [4-{(S)-2-[(S)-2-(tert-Butoxycarbonylamino)-3-phenylpropanamido]-2-(4-ethylthiazol-2-yl)ethyl}phenylsulfamic acid]
Calf blood flow as compared to vehicle (hindlimb ischemia; SubQ continuous infusion, both doses (5 mg/kg/d and 15 mg/kg/d)): significant improvement | Blood Flow During exercise Calf (GPS) (hindlimb ischemia; [3]): 75 ± 1.7 ml/min/100 g | Blood Flow During exercise Calf (GPS) (hindlimb ischemia; [4]): 69 ± 2.0 ml/min/100 g | Calf blood flow response relative to VEGF (hindlimb ischemia; lower dose (5 mg/kg/d)): did not elicit a maximal VEGF response | Blood pressures of the treatment groups ([1]; compared with VEGF and/or Vehicle groups): lower than the VEGF and/or Vehicle groups | Blood Pressure Post-Exercise [1, 3]: 133 ± 3.7 | Heart Rate Exercise [1, 3]: 456 ± 13.0 | Heart Rate Post-Exercise [1, 3]: 462 ± 14.8 | Heart Rate Pre-Exercise [1, 3]: 428 ± 13.5 | Blood Pressure Exercise [1, 5]: 144 ± 4.6 | Blood Pressure Pre-Exercise [1, 5]: 137 ± 4.5 | Blood Pressure Exercise [1, 4]: 142 ± 3.2 | Heart Rate Exercise [1, 4]: 487 ± 10.1 | Heart Rate Post-Exercise [1, 4]: 465 ± 18.8 | Heart Rate Pre-Exercise [1, 4]: 429 ± 19.8 | Blood Pressure Post-Exercise ([1]; continuous SubQ infusion Low 5 mg/kg/d, in mmHg (unit assumed)): 135 ± 3.1 | Blood Pressure Pre-Exercise [1, 4]: 132 ± 3.9 | Initial Body Wt ([2]; High 15 mg/kg/d group): 364 ± 4.8 | Initial Body Wt ([2]; Low 5 mg/kg/d group): 365 ± 4.8 | Ending Body Wt [2, 3]: 409 ± 5.5 | Ending Body Wt [2, 4]: 413 ± 5.6

CCc1csc([C@H](Cc2ccc(NS(=O)(=O)O)cc2)NC(=O)CNC(=O)OC)n1 [(S)-4-{2-(4-Ethylthiazol-2-yl)-2-[2-(methoxycarbonylamino)acetamido]ethyl}phenylsulfamic acid]
IC50 (HPTPβ): 20 nM | IC50 (PTP1B): 5260 nM

CCc1csc([C@H](Cc2ccc(NS(=O)(=O)O)cc2)NC(=O)CNC(=O)OC(C)(C)C)n1 [(S)-4-{2-[2-(tert-Butoxycarbonylamino)acetamido]-2-(4-ethylthiazol-2-yl)ethyl}phenylsulfamic acid]
IC50 (HPTPβ): 28 nM | IC50 (PTP1B): 16000 nM

CC(C)(C)C(=O)N[C@@H](Cc1ccc(NS(=O)(=O)O)cc1)c1nc(CO)cs1 [(S)-4-{2-[4-(hydroxymethyl)thiazol-2-yl]-2-pivalamidoethyl}phenyl-sulfamic acid]
IC50 (HPTPβ): 266 nM | IC50 (PTP1B): 50000 nM

CCOC(=O)c1csc([C@H](Cc2ccc(NS(=O)(=O)O)cc2)NC(=O)C(C)(C)C)n1 [(S)-4-{[2-(4-Ethoxycarbonyl)thiazol-2-yl]-2-pivalamidoethyl}phenylsulfamic acid]
IC50 (HPTPβ): 584 nM | IC50 (PTP1B): 44900 nM

CCc1csc([C@H](Cc2ccc(NS(=O)(=O)O)cc2)NC(=O)Cc2ccccc2)n1 [(S)-{4-[2-(4-Ethylthiazol-2-yl)-2-(phenylacetylamino)ethyl]-phenyl}sulfamic acid]
IC50 (HPTPβ): 0.157 nM | IC50 (PTP1B): 722 nM

CC(C)(C)OC(=O)N[C@@H](Cc1ccc(NS(=O)(=O)O)cc1)c1nc(-c2ccccc2)cs1 [[1-(S)-(Phenylthiazol-2-yl)-2-(4-sulfoaminophenyl)ethyl]-carbamic acid tert-butyl ester]
IC50 (HPTPβ): 49 nM | IC50 (PTP1B): 33000 nM

(S)-4-(2-(tert-Butoxycarbonyl)-2-(4-(2-(2-methoxy-2-oxoyethyl amino)-2-oxoethyl)thiazole-2-yl)ethyl)phenylsulfamic acid
IC50 (HPTPβ): 132 nM | IC50 (PTP1B): 50000 nM

(S)-4-(2-(tert-Butoxycarbonylamino)-2-(2-pivalamidothiazol-4-yl)ethyl)phenylsulfamic acid
IC50 (HPTPβ): 555 nM | IC50 (PTP1B): 9120 nM

VEGF
Blood Flow During exercise Calf (GPS) (hindlimb ischemia; VEGF 15 μg/kg/d): 76 ± 1.1 ml/min/100 g | GPS blood flow over the Vehicle control groups (hindlimb ischemia; VEGF treatment groups): significant improvement
